Data from patent US20190307776A1, “AZA-S[…] HUMAN IMMUNODEFICIENCY VIRUS REPLICATION” (priority 2016, published 2019).

Test system: recombinant NL4-3 virus
Assay: HIV cell culture assay
Type: cell-based
Conditions: Human immunodeficiency virus 1, NL43, MT2
Description: HIV cell culture assay—MT-2 cells and 293T cells were obtained from the NIH AIDS Research and Reference Reagent Program. MT-2 cells were propagated in RPMI 1640 media supplemented with 10% heat inactivated fetal bovine serum, 100 […]. The 293T cells were propagated in DMEM media supplemented with 10% heat inactivated fetal bovine serum (FBS), 100 units/ml penicillin G and 100 μg/ml streptomycin. The proviral DNA clone of NL4-3 was obtained from the NIH AIDS Research and Reference Reagent Program. A recombinant NL4-3 virus, in which a section of the nef gene from NL4-3 was replaced with the Renilla luciferase gene, was used as a reference virus. In addition, residue Gag P373 was converted to P373S. Briefly, the recombinant virus was prepared by transfection of the altered proviral clone of NL4-3. Transfections were performed in 293T cells using LipofectAMINE PLUS from Invitrogen (Carlsbad, Calif.), according to manufacturer's instruction. The virus was titered in MT-2 cells using luciferase enzyme activity as a marker. Luciferase was quantitated using the Dual Luciferase kit from Promega (Madison, Wis.), with modifications to the manufacturer's protocol. The diluted Passive Lysis solution was pre-mixed with the re-suspended Luciferase Assay Reagent and the re-suspended Stop & Glo Substrate (2:1:1 ratio). Fifty (50) μL of the mixture was added to each aspirated well on assay plates and luciferase activity was measured immediately on a Wallac TriLux (Perkin-Elmer). Antiviral activities of inhibitors toward the recombinant virus were quantified by measuring luciferase activity in cells infected for 4-5 days with NLRluc recombinants in the presence serial dilutions of the inhibitor.

| Structure (SMILES) | EC50 [µM] |
| --- | --- |
| C=C(C)[C@@H]1CC[C@]2(CO)CC[C@]3(C)[C@H](CC[C@@H]4[C@@]5(C)CCCN(C(=O)CC(=O)O)C(C)(C)C5CC[C@]43C)[C@@H]12 (stereo partly drawn) [Example 1, 3-((7aR,7bR,9aS,12R,12aR,12bR,14aR,14bR)-9a-(hydroxymethyl)-5,5,7a,7b,14b-pentamethyl-12-(prop-1-en-2-yl)icosahydrocyclopenta[7,8]phenanthro[2,1-c]azepin-4(1H)-yl)-3-oxopropanoic acid] | 2.31 |
| C=C(C)[C@@H]1CC[C@]2(CO)CC[C@]3(C)[C@H](CC[C@@H]4[C@@]5(C)CCCN(C(=O)c6cccc(C(=O)O)c6)C(C)(C)C5CC[C@]43C)[C@@H]12 (stereo partly drawn) [Example 2, 3-((7aR,7bR,9aS,12R,12aR,12bR,14aR,14bR)-9a-(hydroxymethyl)-5,5,7a,7b,14b-pentamethyl-12-(prop-1-en-2-yl)docosahydrocyclopenta[7,8]phenanthro[2,1-c]azepine-4-carbonyl)benzoic acid] | > 8 |
| C=C(C)[C@@H]1CC[C@]2(CO)CC[C@]3(C)[C@H](CC[C@@H]4[C@@]5(C)CCCN(C(=O)CCC(=O)O)C(C)(C)C5CC[C@]43C)[C@@H]12 (stereo partly drawn) [Example 3, 4-((7aR,7bR,9aS,12R,12aR,12bR,14aR,14bR)-9a-(hydroxymethyl)-5,5,7a,7b,14b-pentamethyl-12-(prop-1-en-2-yl)icosahydrocyclopenta[7,8]phenanthro[2,1-c]azepin-4(1H)-yl)-4-oxobutanoic acid] | > 8 |
| C=C(C)[C@@H]1CC[C@]2(CO)CC[C@]3(C)[C@H](CC[C@@H]4[C@@]5(C)CCCN(C(=O)CCCCC(=O)O)C(C)(C)C5CC[C@]43C)[C@@H]12 (stereo partly drawn) [Example 4, 6-((7aR,7bR,9aS,12R,12aR,12bR,14aR,14bR)-9a-(hydroxymethyl)-5,5,7a,7b,14b-pentamethyl-12-(prop-1-en-2-yl)icosahydrocyclopenta[7,8]phenanthro[2,1-c]azepin-4(1H)-yl)-6-oxohexanoic acid] | > 8 |
| C=C(C)[C@@H]1CC[C@]2(CO)CC[C@]3(C)[C@H](CC[C@@H]4[C@@]5(C)CCN(C(=O)c6cccc(C(=O)O)c6)C(C)(C)C5CC[C@]43C)[C@@H]12 (stereo partly drawn) [Example 5, 3-((6aR,6bR,8aS,11R,11aR,11bR,13aR,13bR)-8a-(hydroxymethyl)-4,4,6a,6b,13b-pentamethyl-11-(prop-1-en-2-yl)icosahydro-1H-cyclopenta[5,6]naphtho[2,1-f]isoquinoline-3-carbonyl)benzoic acid] | 1.25 |
| C=C(C)[C@@H]1CC[C@]2(CO)CC[C@]3(C)[C@H](CC[C@@H]4[C@@]5(C)CCN(C(=O)C(=O)O)C(C)(C)C5CC[C@]43C)[C@@H]12 (stereo partly drawn) [Example 6, 2-((6aR,6bR,8aS,11R,11aR,11bR,13aR,13bR)-8a-(hydroxymethyl)-4,4,6a,6b,13b-pentamethyl-11-(prop-1-en-2-yl)icosahydro-3H-cyclopenta[5,6]naphtho[2,1-f]isoquinolin-3-yl)-2-oxoacetic acid] | 4 |
| C=C(C)[C@@H]1CC[C@]2(CO)CC[C@]3(C)[C@H](CC[C@@H]4[C@@]5(C)CCN(C(=O)CC(=O)O)C(C)(C)C5CC[C@]43C)[C@@H]12 (stereo partly drawn) [Example 7, 3-((6aR,6bR,8aS,11R,11aR,11bR,13aR,13bR)-8a-(hydroxymethyl)-4,4,6a,6b,13b-pentamethyl-11-(prop-1-en-2-yl)icosahydro-3H-cyclopenta[5,6]naphtho[2,1-f]isoquinolin-3-yl)-3-oxopropanoic acid] | 0.48 |
| C=C(C)[C@@H]1CC[C@]2(CO)CC[C@]3(C)[C@H](CC[C@@H]4[C@@]5(C)CCN(C(=O)CCCC(=O)O)C(C)(C)C5CC[C@]43C)[C@@H]12 (stereo partly drawn) [Example 8, 5-((6aR,6bR,8aS,11R,11aR,11bR,13aR,13bR)-8a-(hydroxymethyl)-4,4,6a,6b,13b-pentamethyl-11-(prop-1-en-2-yl)icosahydro-3H-cyclopenta[5,6]naphtho[2,1-f]isoquinolin-3-yl)-5-oxopentanoic acid] | 1.81 |
| C=C(C)[C@@H]1CC[C@]2(CO)CC[C@]3(C)[C@H](CC[C@@H]4[C@@]5(C)CCN(C(=O)CCC(=O)O)C(C)(C)C5CC[C@]43C)[C@@H]12 (stereo partly drawn) [Example 9, 4-((6aR,6bR,8aS,11R,11aR,11bR,13aR,13bR)-8a-(hydroxymethyl)-4,4,6a,6b,13b-pentamethyl-11-(prop-1-en-2-yl)icosahydro-3H-cyclopenta[5,6]naphtho[2,1-f]isoquinolin-3-yl)-4-oxobutanoic acid] | 2.76 |
| C=C(C)[C@@H]1CC[C@]2(CO)CC[C@]3(C)[C@H](CC[C@@H]4[C@@]5(C)CCN(C(=O)c6ccc(C(=O)O)cc6)C(C)(C)C5CC[C@]43C)[C@@H]12 (stereo partly drawn) [Example 10, 4-((6aR,6bR,8aS,11R,11aR,11bR,13aR,13bR)-8a-(hydroxymethyl)-4,4,6a,6b,13b-pentamethyl-11-(prop-1-en-2-yl)icosahydro-1H-cyclopenta[5,6]naphtho[2,1-f]isoquinoline-3-carbonyl)benzoic acid] | 0.32 |
| C=C(C)[C@@H]1CC[C@]2(CO)CC[C@]3(C)[C@H](CC[C@@H]4[C@@]5(C)CCCN(S(=O)(=O)c6ccc(C(=O)O)o6)C(C)(C)C5CC[C@]43C)[C@@H]12 (stereo partly drawn) [Example 11, 5-(((7aR,7bR,9aS,12R,12aR,12bR,14aR,14bR)-9a-(hydroxymethyl)-5,5,7a,7b,14b-pentamethyl-12-(prop-1-en-2-yl)icosahydrocyclopenta[7,8]phenanthro[2,1-c]azepin-4(1H)-yl)sulfonyl)furan-2-carboxylic acid] | > 8 |
| C=C(C)[C@@H]1CC[C@]2(CO)CC[C@]3(C)[C@H](CC[C@@H]4[C@@]5(C)CCCN(S(=O)(=O)c6ccc(/C=C/C(=O)O)cc6)C(C)(C)C5CC[C@]43C)[C@@H]12 (stereo partly drawn) [Example 12, (E)-3-(4-(((7aR,7bR,9aS,12R,12aR,12bR,14aR,14bR)-9a-(hydroxymethyl)-5,5,7a,7b,14b-pentamethyl-12-(prop-1-en-2-yl)icosahydrocyclopenta[7,8]phenanthro[2,1-c]azepin-4(1H)-yl)sulfonyl)phenyl)acrylic acid] | > 8 |
| C=C(C)[C@@H]1CC[C@]2(CO)CC[C@]3(C)[C@H](CC[C@@H]4[C@@]5(C)CCCN(S(=O)(=O)c6cccc(C(=O)O)c6)C(C)(C)C5CC[C@]43C)[C@@H]12 (stereo partly drawn) [Example 13, 3-(((7aR,7bR,9aS,12R,12aR,12bR,14aR,14bR)-9a-(hydroxymethyl)-5,5,7a,7b,14b-pentamethyl-12-(prop-1-en-2-yl)icosahydrocyclopenta[7,8]phenanthro[2,1-c]azepin-4(1H)-yl)sulfonyl)benzoic acid] | > 8 |
| C=C(C)[C@@H]1CC[C@]2(CO)CC[C@]3(C)[C@H](CC[C@@H]4[C@@]5(C)CCCN(S(=O)(=O)c6ccc(C(=O)O)cc6)C(C)(C)C5CC[C@]43C)[C@@H]12 (stereo partly drawn) [Example 14, 4-(((7aR,7bR,9aS,12R,12aR,12bR,14aR,14bR)-9a-(hydroxymethyl)-5,5,7a,7b,14b-pentamethyl-12-(prop-1-en-2-yl)icosahydrocyclopenta[7,8]phenanthro[2,1-c]azepin-4(1H)-yl)sulfonyl)benzoic acid] | 1.7 |
| C=C(C)[C@@H]1CC[C@]2(CO)CC[C@]3(C)[C@H](CC[C@@H]4[C@@]5(C)CCCN(S(=O)(=O)c6ccc(CC(=O)O)cc6)C(C)(C)C5CC[C@]43C)[C@@H]12 (stereo partly drawn) [Example 15, 2-(4-(((7aR,7bR,9aS,12R,12aR,12bR,14aR,14bR)-9a-(hydroxymethyl)-5,5,7a,7b,14b-pentamethyl-12-(prop-1-en-2-yl)icosahydrocyclopenta[7,8]phenanthro[2,1-c]azepin-4(1H)-yl)sulfonyl)phenyl)acetic acid] | > 8 |
| C=C(C)[C@@H]1CC[C@]2(CO)CC[C@]3(C)[C@H](CC[C@@H]4[C@@]5(C)CCCN(S(=O)(=O)c6ccc(C)c(C(=O)O)c6)C(C)(C)C5CC[C@]43C)[C@@H]12 (stereo partly drawn) [Example 16, 5-(((7aR,7bR,9aS,12R,12aR,12bR,14aR,14bR)-9a-(hydroxymethyl)-5,5,7a,7b,14b-pentamethyl-12-(prop-1-en-2-yl)icosahydrocyclopenta[7,8]phenanthro[2,1-c]azepin-4(1H)-yl)sulfonyl)-2-methylbenzoic acid] | > 8 |
| C=C(C)[C@@H]1CC[C@]2(CO)CC[C@]3(C)[C@H](CC[C@@H]4[C@@]5(C)CCN(S(=O)(=O)c6cccc(C(=O)O)c6)C(C)(C)C5CC[C@]43C)[C@@H]12 (stereo partly drawn) [Example 17, 3-(((6aR,6bR,8aS,11R,11aR,11bR,13aR,13bR)-8a-(hydroxymethyl)-4,4,6a,6b,13b-pentamethyl-11-(prop-1-en-2-yl)icosahydro-3H-cyclopenta[5,6]naphtho[2,1-f]isoquinolin-3-yl)sulfonyl)benzoic acid] | 4.94 |
